For four compounds, IC50, Weight loss and Ki results are on record in ChEMBL document CHEMBL1136284, “An aminopyridazine-based inhibitor of a pro-apoptotic protein kinase attenuates hypoxia-ischemia induced acute brain injury” (Bioorg Med Chem Lett, 2003).

In general, IC50 refers to the midpoint of a concentration-inhibition curve. A word on the Ki: it is the equilibrium dissociation constant of an inhibitor or competing ligand from its target. Lower therefore signals a stronger hold on the target.

One test has as its target CaM kinase II (Homo sapiens, UniProt Q13557+Q13555+Q13554+Q9UQM7). Put plainly: Inhibition of Calcium/calmodulin-dependent protein kinase type II. The format is protein assay.
Test [1] addresses cAMP-dependent protein kinase (PKA) (Homo sapiens, UniProt P22694+P17612+P22612). Description: Inhibition of Protein kinase A. The format is protein assay.
A further test has as its target Protein kinase C (PKC). Put plainly: Inhibition of Protein kinase C. The format is protein assay.
Test [2] is described as follows: Inhibition of Death associated protein kinase.
The test system of test [3] is Rattus norvegicus. Description: Brain hemisphere weight loss after 5 mg/kg ip administration prior to HI injury in rats. The note with it: route intraperitoneal.
The nature of test [4]: Displacement of ATP from Death associated protein kinase.
The species entered for test [5] is Rattus norvegicus. Put plainly: Brain hemisphere weight loss 6 hr after HI injury in rats.

As for `N=c1ccc(-c2ccccc2)nn1CCCCCCCCCCC(=O)Nc1ccc(-c2ccccc2)nn1`, the IC50 on CaM kinase II is greater than 100 µM; in test [1] it was greater than 100 µM; on Protein kinase C (PKC) it was 3 µM; in test [2] it was 22 µM.
Turning to `N=c1cc2c(nn1CCCCCCCCCCC(=O)Nc1ccc(-c3ccccc3)nn1)-c1ccccc1CC2`, the IC50 is greater than 100 µM in test [1], greater than 100 µM against Protein kinase C (PKC) and 13 µM in test [2]. In addition, the Weight loss in the test on Rattus norvegicus [3] is 17.3%; in the test filed under Rattus norvegicus [5] it was 21.6%. Besides, the Ki came out at 20 µM in test [4] and 15 µM in test [2].
`Cc1cc(-c2ccccc2)nnc1NCCN1CCOCC1` [MINAPRINE]: the IC50 (on CaM kinase II; in test [1]; against Protein kinase C (PKC); in test [2]) was greater than 100 µM throughout.
Consider `Cc1ccc(=N)n(CCCCCCCCCCC(=O)Nc2ccc(-c3ccccc3)nn2)n1`, for which the IC50 at CaM kinase II was greater than 100 µM; in test [1] it was greater than 100 µM; against Protein kinase C (PKC) it was 31 µM; in test [2], greater than 100 µM.
